In patent US10913752B2, “Bivalent bromodomain inhibitors and uses thereof” (Dana-Farber Cancer Institute, Inc., priority 2015, dated 2021):
“Also recorded” adds a separate entry of the source.

Assays:
[1] = system: MYC; assay: Immunoblot for MYC in MV4;11 cells; assay type: cell-based, human
Experimental: (§1) Cells were lysed with RIPA buffer supplemented with protease inhibitor cocktail (Roche) and 0.1% benzonase (Novagen) on ice for 20 minutes. The lysates were spun at 20,000×g for 15 minutes at 4° C. and protein concentration was determined by a BCA assay (Pierce). The following antibodies were used in this study: BRD4 (Bethyl labs), c-MYC and actin (both Santa Cruz), HEXIM1, PARP, cleaved caspase 3 (all Cell Signaling Technology). Blots were imaged using fluorescence-labeled secondary antibodies (LI-COR) on the OdysseyCLxImager (LI-COR).

[2] = target: T1, CBP (Homo sapiens, UniProt Q92793); assay: BROMOscan, CBP; assay type: binding
T1 construct: purchased DiscoveRx (BROMOscan)
Excerpt: (§2) To further profile bivalent inhibitors, fluorescent polarization (FP) and phage-based, multiplexed bromodomain displacement assays (BROMOscan™, DiscoveRx) were utilized.

[3] = system: HEXIM1; assay: Immunoblot for HEXIM1 in MV4;11 cells; assay type: cell-based, human
Experimental: as §1

[4] = target: T2, BRD4(1) (Homo sapiens, UniProt O60885); assay: BRD4(1) AlphaScreen (competition with biotinylated-JQ1); assay type: binding; set-up: human BRD4 covering residues 44-168 (His-BRD4(1)) or 333-460 (His-BRD4(2)); made in house; host or cells: E. coli BL21 (DE3); settings: for biochemical activity (in words): biochemical assay, compared with JQ1
Experimental: BRD4(1) and BRDT(1) AlphaScreen™
Assays were performed with minimal modifications from the manufacturer's protocol (PerkinElmer, USA). All reagents were diluted in AlphaScreen™ buffer (50 mM HEPES, 150 mM NaCl, 0.1% w/v BSA, 0.01% w/v Tween20, pH 7.5) and allowed to equilibrate to room temperature prior to addition to plates. After addition of Alpha beads to master solutions all subsequent steps were performed under low light conditions. […] Plates were spun down at 150×g, 100 nL of compound in DMSO from stock plates were added by pin transfer using a Janus Workstation (PerkinElmer). The streptavidin-coated donor beads (10 μg/ml final) were added as with previous in a 2×, 10 μL volume. Following this addition, plates were sealed with foil to prevent light exposure and evaporation. The plates were spun down again at 150×g.

[5] = target: T2, BRD4(1); assay: BROMOscan phage-based bromodomain displacement, BRD4(1)
[6] = system: NMC797 and MV4; 11 cells; assay: Cellular assays, cell lines not told apart (NMC797 and MV4;11); assay type: cell-based, human
Excerpt: Analysis of Cell Viability by ATPLite

[7] = target: BRD4(2) (Homo sapiens, UniProt O60885); assay: BROMOscan, BRD4(2)
[8] = target: BRD4(full) (Homo sapiens, UniProt O60885); assay: BROMOscan, full length protein
[9] = target: T3, EP300 (Homo sapiens, UniProt Q09472); assay: BROMOscan, EP300; assay type: binding
T3 construct: purchased DiscoveRx (BROMOscan)
Excerpt: as §2

[10] = target: T4, BRD4 (Homo sapiens, UniProt O60885); assay: Immunoblot for BRD4 protein stability (degradation); assay type: cell-based; settings: immunoblots following compound treatment
T4 construct: endogenous in cells; host or cells: MV4;11
Experimental: as §1

[11] = target: T5, WDR9(2) (Homo sapiens, UniProt Q9NSI6); assay: BROMOscan, WDR9(2); assay type: binding
T5 construct: purchased DiscoveRx (BROMOscan)
Excerpt: as §2

[12] = target: BRD4(1,2) (Homo sapiens, UniProt O60885); assay: BROMOscan, tandem bromodomain construct
[13] = Mouse pharmacokinetics (cassette and single PK); assay type: in vivo, CD1 mice; settings: mice
Experimental: FIGS. 9a-9b. Cassette PK properties of bivalent inhibitors. FIGS. 9a and 9b show PK parameters of mice 5-in-1 cassette PK. Five compounds (1 mg/kg) were intravenously administered to CD1 mice (n=3).
FIGS. 10a-10b. Individual PK properties of bivalent inhibitors. […] (6S+2S)-PEG0 (50 mg/kg) was intraperitoneally administered to CD1 mice (n=3). […] (6S+6S)-PEG7 (50 mg/kg) was intraperitoneally administered to CD1 mice (n=3).

[14] = system: NMC797 cells (BRD4-rearranged NUT midline carcinoma); assay: cells; settings: Homo sapiens, NMC-797, 72 h, read-out: IC50, proliferation
Experimental: Cells were cultured at 37° C. with 5% CO2 in either DMEM (NMC797) or RPMI1640 (MV4; 11) supplemented with 10% FBS (Sigma), 100 U/mL penicillin, 100 μg/mL streptomycin, and 2 mM glutamine (Gibco). Cells tested negative for mycoplasma using the MycoAlert™ kit (Lonza).
Cells were plated at 1000 cells/well in 50 μL/well of media in 384 well white culture plates (Thermo). NMC797 cells were allowed to adhere overnight before adding 100 μL of compound in DMSO from compound stock plates using a Janus Workstation pin tool (PerkinElmer, USA). […] Cell viability was read out using the ATPlite kit (PerkinElmer). Plates were brought to room temperature prior to reagent addition. Lyophilized powder was resuspended in lysis buffer and diluted 1:2 with DI water.

[15] = system: 55 ligand receptors, ion channels, and transport proteins; assay: Receptor profiling (ExpresSProfile, CEREP); settings: 1 μM, more than 50 tested
[16] = system: BRD4(1^MUT,2) (N140A); assay: Size-exclusion chromatography, first bromodomain mutant; settings: half an equivalence of MT1
[17] = target: T6, neurokinin NK2 receptor (Homo sapiens, UniProt P21452); assay: Receptor profiling, [Nleu-10]-NKA radioligand binding; settings: 1 μM
T6 construct: purchased CEREP (Eurofins, Paris, France), ExpresSProfile
Excerpt: Receptor Profiling Studies

[18] = system: wild-type BRD4(1,2); assay: Size-exclusion chromatography, wild-type tandem construct; settings: half an equivalence of MT1
[19] = system: BRD4(1,2^MUT) (N433A); assay: Size-exclusion chromatography, second bromodomain mutant; settings: half an equivalence of MT1
[20] = system: MV4; 11 human leukemia cells (mCherry+, Luciferase+); assay: Disseminated leukemia xenograft, first study; set-up: mCherry+ leukemic burden in bone marrow by FACS: dose or concentration left out as unconfirmed
[21] = system: MV4; 11 human leukemia cells (mCherry+, Luciferase+); assay: Disseminated leukemia xenograft, second (survival) study; assay type: in vivo, mice (NSG); settings: 44.2 μmol/kg
Excerpt: A drug holiday was given for 2 days (day 29-30), Treatment resumed for 5 more days (31-35) and then ended. Mice were monitored and sacrificed when hind-limb paralysis was evident or body weight dropped by 15%.

[22] = system: MV4; 11 cells; assay: Immunoblot for caspase-3 and PARP cleavage in MV4;11 cells; assay type: cell-based, human; settings: 100 nM
Experimental: as §1

[23] = system: BRD2, 3 and 4; assay: Cellular thermal shift assay (CETSA); assay type: cell-based, human; settings: MV411 cells
Experimental: Cellular Thermal Shift Assay (CETSA)
Compound or DMSO was incubated with 4×10^6 MV411 cells for 1 hr at 37° C. Cells were put on ice and washed with PBS and transferred to PCR tubes. Supernatant was aspirated to leave ˜5 μl in each tube and then cells were heat shocked in a thermocycler at 48.5° C. for 3 min to denature proteins. Cells were then allowed to cool at RT for 3 min and then resuspended in 35 μl lysis buffer (50 mM Tris-HCl pH 7.5, 5% glycerol, 100 mM NaCl, 1.5 mM MgCl, 0.2% NP-40+protease inhibitor cocktail (Halt)) and freeze-thawed 3 times with liquid nitrogen to lyse cells. Lysates were then spun at 20,000×g for 20 min to clarify and pellet aggregated protein. Supernatant was boiled with LDS and split into three samples for immunoblotting. Bands were quantified using Image Studio™ software and plotted using GraphPad PRISM v6 as triplicate means±SEM.

T5 sequence (Q9NSI6 1313-1418 limits assumed): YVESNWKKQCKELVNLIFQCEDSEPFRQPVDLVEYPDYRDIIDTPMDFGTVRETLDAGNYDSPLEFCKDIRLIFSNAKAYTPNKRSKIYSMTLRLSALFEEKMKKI
T3 sequence (Q09472 1049-1156 limits assumed): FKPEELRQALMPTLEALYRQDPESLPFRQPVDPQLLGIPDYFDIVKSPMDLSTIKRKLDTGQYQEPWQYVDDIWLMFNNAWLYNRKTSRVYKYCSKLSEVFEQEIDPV
T6 sequence (P21452 whole entry): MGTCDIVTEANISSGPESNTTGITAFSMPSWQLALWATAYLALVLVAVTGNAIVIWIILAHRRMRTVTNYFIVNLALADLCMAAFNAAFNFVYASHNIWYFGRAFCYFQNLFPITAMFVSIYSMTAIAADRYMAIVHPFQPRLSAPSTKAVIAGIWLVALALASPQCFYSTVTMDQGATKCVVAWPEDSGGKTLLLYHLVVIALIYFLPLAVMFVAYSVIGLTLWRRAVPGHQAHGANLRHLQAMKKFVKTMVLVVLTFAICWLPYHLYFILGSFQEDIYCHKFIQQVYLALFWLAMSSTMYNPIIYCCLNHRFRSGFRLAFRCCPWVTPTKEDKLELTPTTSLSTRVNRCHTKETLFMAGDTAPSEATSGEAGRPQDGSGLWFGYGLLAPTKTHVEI
T1 sequence (Q92793 1085-1192 limits assumed): as the sequence (Q09472 1049-1156 limits assumed) above, with S47N, I73V, Y93F, S98A counted along it

Compound: COC(=O)C[C@@H]1N=C(c2ccc(Cl)cc2)c2c(sc(C(=O)NCCOCCNC(=O)C[C@@H]3N=C(c4ccc(Cl)cc4)c4c(sc(C)c4C)-n4c(C)nnc43)c2C)-n2c(C)nnc21 [(6S+2S)-PEG1, Methyl 2-((S)-4-(4-chlorophenyl)-2-((2-(2-(2-((S)-4-(4-chlorophenyl)-2,3,9-trimethyl-6H-thieno[3,2-f][1,2,4]triazolo[4,3-a][1,4]diazepin-6-yl)acetamido)ethoxy)ethyl)carbamoyl)-3,9-dimethyl-6H-thieno[3,2-f][1,2,4]triazolo[4,3-a][1,4]diazepin-6-yl)acetate]
- time of maximum effect on MYC ([1]; 10 nM): 2 h
- lowest concentration with MYC downregulation ([1]; within two hours): 10 nM
- Kd [2]: 2500 nM
- time points of HEXIM1 upregulation [3]: 4 to 24 h
- biochemical activity (in words) [4]: single-digit to sub-nanomolar activity
- displacement of phage (in words) [5]: picomolar displacement
- cellular activity (in words) ([6]; 11, compared with JQ1): single-digit to sub-nanomolar activity
- displacement of phage (in words) [7]: picomolar displacement
- displacement of phage (in words) [8]: picomolar displacement
- Kd [9]: 5 µM
- effect on BRD4 protein stability [10]: No effect on protein stability
- Kd [11]: 9.9 µM
- displacement of phage (in words) [12]: picomolar displacement

Compound: COC(=O)C[C@@H]1N=C(c2ccc(Cl)cc2)c2c(sc(C(=O)NCCNC(=O)C[C@@H]3N=C(c4ccc(Cl)cc4)c4c(sc(C)c4C)-n4c(C)nnc43)c2C)-n2c(C)nnc21 [(6+6)-PEG1, Methyl 2-((S)-4-(4-chlorophenyl)-2-((2-(2-((S)-4-(4-chlorophenyl)-2,3,9-trimethyl-6H-thieno[3,2-f][1,2,4]triazolo[4,3-a][1,4]diazepin-6-yl)acetamido)ethyl)carbamoyl)-3,9-dimethyl-6H-thieno[3,2-f][1,2,4]triazolo[4,3-a][1,4]diazepin-6-yl)acetate]
- biochemical activity (in words) [4]: did not show improved activity
- biochemical activity (in words) ([4]; listed as (6+6) homodimer): did not increase biochemical or cellular activity
- cellular activity (in words) ([6]; 11, compared with JQ1): did not show improved activity
- cellular activity (in words) ([6]; 11, compared with JQ1, listed as (6+6) homodimer): did not increase biochemical or cellular activity

Compound: COC(=O)C[C@@H]1N=C(c2ccc(Cl)cc2)c2c(sc(C(=O)NCCNC(=O)C[C@@H]3N=C(c4ccc(Cl)cc4)c4c(sc(C)c4C)-n4c(C)nnc43)c2C)-n2c(C)nnc21 [(6S+2S)-PEG0, Methyl 2-((S)-4-(4-chlorophenyl)-2-((2-(2-((S)-4-(4-chlorophenyl)-2,3,9-trimethyl-6H-thieno[3,2-f][1,2,4]triazolo[4,3-a][1,4]diazepin-6-yl)acetamido)ethyl)carbamoyl)-3,9-dimethyl-6H-thieno[3,2-f][1,2,4]triazolo[4,3-a][1,4]diazepin-6-yl)acetate]
- PK properties (in words) [13]: comparable PK properties to MT1

Compound: COc1cc2c(cc1-c1c(C)noc1C)ncc1[nH]c(=O)n([C@H](C)c3ccccn3)c12 [I-BET151, reference compound]
- biochemical activity (in words) [4]: comparable performance to JQ1
- cellular activity (in words) ([6]; 11, compared with JQ1): comparable performance to JQ1

Compound: Cc1sc2c(c1C)C(c1ccc(Cl)cc1)=N[C@@H](CC(=O)OC(C)(C)C)c1nnc(C)n1-2 [JQ1, reference compound]
- IC50 [14]: 69 nM

Compound: Methyl 2-((S)-4-(4-chlorophenyl)-2-((2-(2-((S)-4-(4-chlorophenyl)-2,3,9-trimethyl-6H-thieno[3,2-f][1,2,4]triazolo[4,3-a][1,4]diazepin-6-yl)acetamido)ethyl)carbamoyl)-3,9-dimethyl-6H-thieno[3,2-f][1,2,4]triazolo[4,3-a][1,4]diazepin-6-yl)acetate [MT1]
- off-target effects on receptors and ion channels [15]: limited activity; also recorded: few off-target effects
- dimerization by SEC [16]: partial dimerization
- PK properties (in words) [13]: improved PK properties
- exposure in vivo (in words) [13]: highly prolonged exposure in vivo
- inhibition of radioligand agonist binding [17]: only partial inhibition of binding
- dimerization by SEC [18]: absence of dimerization
- dimerization by SEC [19]: Complete dimerization
- leukemic burden by bioluminescence imaging ([20]; half an equivalence (22.1 μmol/kg), 14 days, compared to vehicle or JQ1): significantly reduced leukemic burden
- mCherry+ leukemic burden in bone marrow by FACS ([20]; post-mortem, MT1 at 22.1): significantly decreased
- cellular activity (in words) ([6]; 11, compared with JQ1): translated well in cellular activities
- body weight after drug withdrawal [21]: recovered body weight after drug was withdrawn
- disease monitored by bioluminescence ([21]; compared to JQ1): significantly reduced
- overall survival ([21]; compared to vehicle or JQ1): significantly increased overall survival
- mice sacrificed due to emaciation from drug toxicity ([21]; of 11 mice): two
- apoptosis by caspase-3 and PARP cleavage [22]: Significant apoptosis
- concentrations needed for stabilization, compared with JQ1 [23]: lower concentrations
- thermal stabilization of BET proteins ([23]; 48.5° C. heat shock): stabilized BRD2, 3 and 4 in a concentration dependent manner

Compound: COC(=O)C[C@@H]1N=C(c2ccc(Cl)cc2)c2c(sc(C(=O)NCCOCCNC(=O)c3sc4c(c3C)C(c3ccc(Cl)cc3)=N[C@@H](CC(=O)OC)c3nnc(C)n3-4)c2C)-n2c(C)nnc21 [(2+2)-PEG1, Dimethyl 2,2′-((6S,6′S)-(((oxybis(ethane-2,1-diyl))bis(azanediyl))bis(carbonyl))bis(4-(4-chlorophenyl)-3,9-dimethyl-6H-thieno[3,2-f][1,2,4]triazolo[4,3-a][1,4]diazepine-2,6-diyl))diacetate]
- IC50 ([4]; AlphaScreen, BRD4(1)): 1.17 nM
- fold increase in biochemical potency / inhibitory activity ([4]; BRD4(1), relative to monomeric inhibitor): 20 fold
- cellular activity (in words) ([6]; 11, compared with JQ1): not properly reflected in cellular activity
- cellular activity (in words) ([6]; 11, compared with JQ1, listed as (2+2) homodimer): did not translate into cellular activity
